Reference: patent US20230017045A1, “PYRIDINE AND PYRIMIDINE CARBOXYLATE HERBICIDES AND METHODS OF USE THEREOF” (Dow AgroSciences LLC, priority 2017, published 2023)

Tested on: not given
Assay: not given
Details: not given
With `COC(=O)c1nc(-c2ccc(C(F)(F)F)cc2Cl)cc(F)c1Cl` [F109, methyl 3-chloro-6-(2-chloro-4-(trifluoromethyl)phenyl)-4-fluoropicolinate] the melting point was 127 to 128 °C. In the case of `COC(=O)c1nc(-c2ccc(S(C)(=O)=O)cc2F)c(F)cc1Cl` [F379, Methyl 3-chloro-5-fluoro-6-(2-fluoro-4-(methylsulfonyl)phenyl)picolinate], the melting point is reported as 179 to 181 °C.

Tested on: test plant species
Assay: Post-emergent herbicidal activity test (greenhouse, foliar spray, visual growth reduction)
Assay type: in vivo
Details: post-emergence, 336 h, ALOMY: blackgrass (Alopecurus myosuroides), 140 g ai/ha, 14 days after application, read-out: Visual Growth Reduction (%) 14 Days After Application, ALOMY
Method in brief: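 Plants grown in greenhouse (15 h photoperiod, 23-29° C day/22-28° C night) to first or second true leaf stage were sprayed overhead with compound in acetone/water/isopropanol/DMSO/crop oil/X-77 carrier at 187 L/ha. Injury was scored visually after 14 d on a 0-100% scale versus solvent-blank and untreated controls.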
With `COC(=O)c1nc(-c2ccc(C(F)(F)F)cc2Cl)cc(F)c1Cl` [F109, methyl 3-chloro-6-(2-chloro-4-(trifluoromethyl)phenyl)-4-fluoropicolinate] the pest or weed control at 140 g/ha was 0 to 29%.

Same assay, conditions: post-emergence, 336 h, AMARE: redroot pigweed (Amaranthus retroflexus), 140 g ai/ha, 14 days after application, read-out: Visual Growth Reduction (%) 14 Days After Application, AMARE
`COC(=O)c1nc(-c2ccc(C(F)(F)F)cc2Cl)cc(F)c1Cl` [F109, methyl 3-chloro-6-(2-chloro-4-(trifluoromethyl)phenyl)-4-fluoropicolinate] gave a pest or weed control at 140 g/ha of 0 to 29%.

Same assay, conditions: post-emergence, 336 h, AVEFA: wild oat (Avena fatua), 140 g ai/ha, 14 days after application, read-out: Visual Growth Reduction (%) 14 Days After Application, AVEFA
Compound `COC(=O)c1nc(-c2ccc(C(F)(F)F)cc2Cl)cc(F)c1Cl` [F109, methyl 3-chloro-6-(2-chloro-4-(trifluoromethyl)phenyl)-4-fluoropicolinate] has a pest or weed control at 140 g/ha of 0 to 29%.

Same assay, conditions: post-emergence, 336 h, CHEAL: lambsquarters (Chenopodium album), 140 g ai/ha, 14 days after application, read-out: Visual Growth Reduction (%) 14 Days After Application, CHEAL
`COC(=O)c1nc(-c2ccc(C(F)(F)F)cc2Cl)cc(F)c1Cl` [F109, methyl 3-chloro-6-(2-chloro-4-(trifluoromethyl)phenyl)-4-fluoropicolinate] showed a pest or weed control at 140 g/ha of 0 to 29%.

Same assay, conditions: post-emergence, 336 h, CIRAR: canada thistle (Cirsium arvense), 140 g ai/ha, 14 days after application, read-out: Visual Growth Reduction (%) 14 Days After Application, CIRAR
For `COC(=O)c1nc(-c2ccc(C(F)(F)F)cc2Cl)cc(F)c1Cl` [F109, methyl 3-chloro-6-(2-chloro-4-(trifluoromethyl)phenyl)-4-fluoropicolinate], the pest or weed control at 140 g/ha was 0 to 29%.

Same assay, conditions: post-emergence, 336 h, CYPES: yellow nutsedge (Cyperus esculentus), 140 g ai/ha, 14 days after application, read-out: Visual Growth Reduction (%) 14 Days After Application, CYPES
Compound `COC(=O)c1nc(-c2ccc(C(F)(F)F)cc2Cl)cc(F)c1Cl` [F109, methyl 3-chloro-6-(2-chloro-4-(trifluoromethyl)phenyl)-4-fluoropicolinate] has a pest or weed control at 140 g/ha of 0 to 29%.

Same assay, conditions: post-emergence, 336 h, DIGSA: crabgrass (Digitaria sanguinalis), 140 g ai/ha, 14 days after application, read-out: Visual Growth Reduction (%) 14 Days After Application, DIGSA
`COC(=O)c1nc(-c2ccc(C(F)(F)F)cc2Cl)cc(F)c1Cl` [F109, methyl 3-chloro-6-(2-chloro-4-(trifluoromethyl)phenyl)-4-fluoropicolinate] gave a pest or weed control at 140 g/ha of 0 to 29%.

Same assay, conditions: post-emergence, 336 h, ECHCG: barnyardgrass (Echinochloa crus-galli), 140 g ai/ha, 14 days after application, read-out: Visual Growth Reduction (%) 14 Days After Application, ECHCG
`COC(=O)c1nc(-c2ccc(C(F)(F)F)cc2Cl)cc(F)c1Cl` [F109, methyl 3-chloro-6-(2-chloro-4-(trifluoromethyl)phenyl)-4-fluoropicolinate] gave a pest or weed control at 140 g/ha of 0 to 29%. `COC(=O)c1nc(-c2ccc(S(C)(=O)=O)cc2F)c(F)cc1Cl` [F379, Methyl 3-chloro-5-fluoro-6-(2-fluoro-4-(methylsulfonyl)phenyl)picolinate] showed a pest or weed control at 140 g/ha of 75 to 84%.

Same assay, conditions: post-emergence, 336 h, IPOHE: ivy-leaf morning glory (Ipomoea hederacea), 140 g ai/ha, 14 days after application, read-out: Visual Growth Reduction (%) 14 Days After Application, IPOHE
`COC(=O)c1nc(-c2ccc(C(F)(F)F)cc2Cl)cc(F)c1Cl` [F109, methyl 3-chloro-6-(2-chloro-4-(trifluoromethyl)phenyl)-4-fluoropicolinate] gave a pest or weed control at 140 g/ha of 0 to 29%. In the case of `COC(=O)c1nc(-c2ccc(S(C)(=O)=O)cc2F)c(F)cc1Cl` [F379, Methyl 3-chloro-5-fluoro-6-(2-fluoro-4-(methylsulfonyl)phenyl)picolinate], the pest or weed control at 140 g/ha is reported as 95 to 100%.

Same assay, conditions: post-emergence, 336 h, KCHSC: kochia (Bassia scoparia), 140 g ai/ha, 14 days after application, read-out: Visual Growth Reduction (%) 14 Days After Application, KCHSC
`COC(=O)c1nc(-c2ccc(C(F)(F)F)cc2Cl)cc(F)c1Cl` [F109, methyl 3-chloro-6-(2-chloro-4-(trifluoromethyl)phenyl)-4-fluoropicolinate] gave a pest or weed control at 140 g/ha of 0 to 29%. In the case of `COC(=O)c1nc(-c2ccc(S(C)(=O)=O)cc2F)c(F)cc1Cl` [F379, Methyl 3-chloro-5-fluoro-6-(2-fluoro-4-(methylsulfonyl)phenyl)picolinate], the pest or weed control at 140 g/ha is reported as 85 to 94%.

Same assay, conditions: post-emergence, 336 h, ORYSA: rice (Oryza sativa), 140 g ai/ha, 14 days after application, read-out: Visual Growth Reduction (%) 14 Days After Application, ORYSA
Compound `COC(=O)c1nc(-c2ccc(C(F)(F)F)cc2Cl)cc(F)c1Cl` [F109, methyl 3-chloro-6-(2-chloro-4-(trifluoromethyl)phenyl)-4-fluoropicolinate] has a pest or weed control at 140 g/ha of 0 to 29%. In the case of `COC(=O)c1nc(-c2ccc(S(C)(=O)=O)cc2F)c(F)cc1Cl` [F379, Methyl 3-chloro-5-fluoro-6-(2-fluoro-4-(methylsulfonyl)phenyl)picolinate], the pest or weed control at 140 g/ha is reported as 0 to 29%.

Same assay, conditions: post-emergence, 336 h, SETFA: giant foxtail (Setaria faberi), 140 g ai/ha, 14 days after application, read-out: Visual Growth Reduction (%) 14 Days After Application, SETFA
`COC(=O)c1nc(-c2ccc(C(F)(F)F)cc2Cl)cc(F)c1Cl` [F109, methyl 3-chloro-6-(2-chloro-4-(trifluoromethyl)phenyl)-4-fluoropicolinate] showed a pest or weed control at 140 g/ha of 0 to 29%. Work on `COC(=O)c1nc(-c2ccc(S(C)(=O)=O)cc2F)c(F)cc1Cl` [F379, Methyl 3-chloro-5-fluoro-6-(2-fluoro-4-(methylsulfonyl)phenyl)picolinate] yielded a pest or weed control at 140 g/ha of 75 to 84%.

Same assay, conditions: post-emergence, 336 h, SORVU: grain sorghum (Sorghum vulgare), 140 g ai/ha, 14 days after application, read-out: Visual Growth Reduction (%) 14 Days After Application, SORVU
`COC(=O)c1nc(-c2ccc(C(F)(F)F)cc2Cl)cc(F)c1Cl` [F109, methyl 3-chloro-6-(2-chloro-4-(trifluoromethyl)phenyl)-4-fluoropicolinate] gave a pest or weed control at 140 g/ha of 0 to 29%. `COC(=O)c1nc(-c2ccc(S(C)(=O)=O)cc2F)c(F)cc1Cl` [F379, Methyl 3-chloro-5-fluoro-6-(2-fluoro-4-(methylsulfonyl)phenyl)picolinate] showed a pest or weed control at 140 g/ha of 75 to 84%.

Same assay, conditions: post-emergence, 336 h, STEME: common chickweed (Stellaria media), 140 g ai/ha, 14 days after application, read-out: Visual Growth Reduction (%) 14 Days After Application, STEME
`COC(=O)c1nc(-c2ccc(S(C)(=O)=O)cc2F)c(F)cc1Cl` [F379, Methyl 3-chloro-5-fluoro-6-(2-fluoro-4-(methylsulfonyl)phenyl)picolinate] showed a pest or weed control at 140 g/ha of 0 to 29%.

Same assay, conditions: post-emergence, 336 h, TRZAS: wheat, spring (Triticum aestivum), 140 g ai/ha, 14 days after application, read-out: Visual Growth Reduction (%) 14 Days After Application, TRZAS
With `COC(=O)c1nc(-c2ccc(C(F)(F)F)cc2Cl)cc(F)c1Cl` [F109, methyl 3-chloro-6-(2-chloro-4-(trifluoromethyl)phenyl)-4-fluoropicolinate] the pest or weed control at 140 g/ha was 0 to 29%. With `COC(=O)c1nc(-c2ccc(S(C)(=O)=O)cc2F)c(F)cc1Cl` [F379, Methyl 3-chloro-5-fluoro-6-(2-fluoro-4-(methylsulfonyl)phenyl)picolinate] the pest or weed control at 140 g/ha was 60 to 74%.

Same assay, conditions: post-emergence, 336 h, blackgrass (Alopecurus myosuroides), 14 Days After Application, 140 g ai/ha, read-out: Visual Growth Reduction (%) ALOMY
`COC(=O)c1nc(-c2ccc(S(C)(=O)=O)cc2F)c(F)cc1Cl` [F379, Methyl 3-chloro-5-fluoro-6-(2-fluoro-4-(methylsulfonyl)phenyl)picolinate] gave a pest or weed control at 140 g/ha of 0 to 29%.

Same assay, conditions: post-emergence, 336 h, canada thistle (Cirsium arvense), 14 Days After Application, 140 g ai/ha, read-out: Visual Growth Reduction (%) CIRAR
Compound `COC(=O)c1nc(-c2ccc(S(C)(=O)=O)cc2F)c(F)cc1Cl` [F379, Methyl 3-chloro-5-fluoro-6-(2-fluoro-4-(methylsulfonyl)phenyl)picolinate] has a pest or weed control at 140 g/ha of 0 to 29%.

Same assay, conditions: post-emergence, 336 h, crabgrass (Digitaria sanguinalis), 14 Days After Application, 140 g ai/ha, read-out: Visual Growth Reduction (%) DIGSA
Work on `COC(=O)c1nc(-c2ccc(S(C)(=O)=O)cc2F)c(F)cc1Cl` [F379, Methyl 3-chloro-5-fluoro-6-(2-fluoro-4-(methylsulfonyl)phenyl)picolinate] yielded a pest or weed control at 140 g/ha of 60 to 74%.

Same assay, conditions: post-emergence, 336 h, lambsquarters (Chenopodium album), 14 Days After Application, 140 g ai/ha, read-out: Visual Growth Reduction (%) CHEAL
Work on `COC(=O)c1nc(-c2ccc(S(C)(=O)=O)cc2F)c(F)cc1Cl` [F379, Methyl 3-chloro-5-fluoro-6-(2-fluoro-4-(methylsulfonyl)phenyl)picolinate] yielded a pest or weed control at 140 g/ha of 60 to 74%.

Same assay, conditions: post-emergence, 336 h, redroot pigweed (Amaranthus retroflexus), 14 Days After Application, 140 g ai/ha, read-out: Visual Growth Reduction (%) AMARE
With `COC(=O)c1nc(-c2ccc(S(C)(=O)=O)cc2F)c(F)cc1Cl` [F379, Methyl 3-chloro-5-fluoro-6-(2-fluoro-4-(methylsulfonyl)phenyl)picolinate] the pest or weed control at 140 g/ha was 60 to 74%.

Same assay, conditions: post-emergence, 336 h, wild oat (Avena fatua), 14 Days After Application, 140 g ai/ha, read-out: Visual Growth Reduction (%) AVEFA
For `COC(=O)c1nc(-c2ccc(S(C)(=O)=O)cc2F)c(F)cc1Cl` [F379, Methyl 3-chloro-5-fluoro-6-(2-fluoro-4-(methylsulfonyl)phenyl)picolinate], the pest or weed control at 140 g/ha was 0 to 29%.

Same assay, conditions: post-emergence, 336 h, yellow nutsedge (Cyperus esculentus), 14 Days After Application, 140 g ai/ha, read-out: Visual Growth Reduction (%) CYPES
With `COC(=O)c1nc(-c2ccc(S(C)(=O)=O)cc2F)c(F)cc1Cl` [F379, Methyl 3-chloro-5-fluoro-6-(2-fluoro-4-(methylsulfonyl)phenyl)picolinate] the pest or weed control at 140 g/ha was 0 to 29%.
